The data set is described as follows: Solubility in water. The format is physicochemical. The method, then: As used herein, the term “poorly water-soluble” or “poorly soluble” refers to having a solubility in water at 20° C. of less than 1%, i.e., a “sparingly soluble to practically insoluble, or insoluble drug” as described in Remington, The Science and Practice of Pharmacy, 21st Edition, p. 212, D. B. Troy, Ed., Lippincott Williams & Wilkins (2005).

Each structure is given as a SMILES string. Values after ≈ are worked out from the molar mass of the structure shown.

For `CN(Cc1ccccc1)C(=O)[C@H](Cc1ccc2ccccc2c1)N(C)C(=O)[C@@H]1CCCN1c1nc(=O)c2ccccc2[nH]1`, the concentration in solution (solubility) came to 10 µg/mL (≈ 17.4 µM).

Regarding `CC[C@@H]1/C=C(\C)C[C@H](C)C[C@H](OC)[C@H]2O[C@@](O)(C(=O)C(=O)N3CCCC[C@H]3C(=O)O[C@H](/C(C)=C/[C@@H]3CC[C@H](Cl)[C@H](OC)C3)[C@H](C)[C@@H](O)CC1=O)[C@H](C)C[C@@H]2OC` [Pimecrolimus], the “solubility in water (in words)” value is given as “insoluble in water”.
